# Reference: patent US20140221429A1, “HETEROCYCLIC SCHIFF'S BASES AS NOVEL AND NEW ANTIGLYCATION AGENTS” (priority 2013, published 2014)
# Values joined by “and” are separate entries in the source; they are usually repeats but may differ in a detail not shown here. Equal values may be shown once. Read-outs that look alike come from different tables or passages of the source.
# Target: T1, bovine serum albumin (BSA-methylglyoxal glycation) (Bos taurus, UniProt P02769)
# T1 construct: purchased Merck Marker Pvt; Ltd. (Germany)
# T1 sequence (P02769 25-607): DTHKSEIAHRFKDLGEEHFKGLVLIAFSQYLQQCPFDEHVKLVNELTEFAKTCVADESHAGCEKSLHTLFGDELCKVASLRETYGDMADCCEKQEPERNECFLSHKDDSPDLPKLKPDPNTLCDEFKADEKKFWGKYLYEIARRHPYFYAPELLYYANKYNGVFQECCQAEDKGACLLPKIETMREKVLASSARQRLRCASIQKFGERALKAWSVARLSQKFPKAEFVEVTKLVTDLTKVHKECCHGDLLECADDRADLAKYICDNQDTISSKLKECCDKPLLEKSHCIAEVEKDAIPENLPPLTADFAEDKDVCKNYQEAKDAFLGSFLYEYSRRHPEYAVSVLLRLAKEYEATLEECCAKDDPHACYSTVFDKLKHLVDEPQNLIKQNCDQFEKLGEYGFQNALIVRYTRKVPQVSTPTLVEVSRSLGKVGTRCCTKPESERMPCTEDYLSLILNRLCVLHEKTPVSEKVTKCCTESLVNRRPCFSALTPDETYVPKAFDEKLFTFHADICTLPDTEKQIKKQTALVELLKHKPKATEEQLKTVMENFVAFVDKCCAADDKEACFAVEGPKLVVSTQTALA
# Assay: in vitro BSA-MG glycation model (antiglycation assay)
# Assay type: biochemical
# Settings: for inhibition at 1000 µM: read-out: inhibition of protein glycation
# Description: Bovine Serum Albumin (BSA) was purchased from Merck Marker Pvt. Ltd. (Germany), rutin and methylglyoxal (MG) (40% aqueous solution) were from Sigma Aldrich (Japan), sodium dihydrogen phosphate (NaH2PO4), disodium hydrogen phosphate (Na2HPO4) and sodium azide (NaN3) were purchased from Scharlau Chemie, S. A. (Spain), while dimethyl sulphoxide (DMSO) was purchased from Fischer Scientific (UK).
# The total reaction volume of the assay was 200 μL, having final concentrations of 10 mg/mL BSA, 14 mM methylglyoxal, and 1 mM test compounds. 10 mg/mL solution of BSA and 14 mM methylglyoxal was prepared in 0.1 M phosphate buffer (pH 7.4), containing sodium azide (NaN3) (30 mM) as antimicrobial agent, while 1 mM solutions of test compounds were prepared in the DMSO. Assay was performed in triplicate. Each reaction mixtures were comprised of 50 μL BSA, 50 μL methylglyoxal, 20 μL test compound and 80 μL phosphate buffer (pH 7.4). The reaction mixture was incubated under aseptic conditions at 37° C. for 9 days.
# After completion of nine days of incubation, each sample was examined for the development of specific fluorescence (excitation 330 nm; emission 420 nm) against blank on a microtitre plate reader (SpectraMax M2, Molecular Devices, CA, USA).
# The percent inhibition of AGE formation by the test sample versus control was calculated by using the following formula:
# % Inhibition=([…]−Fluorescence of test sample/Fluorescence of the control)×100
# The IC50 (i.e. the concentration of test samples that inhibit the process of glycation to 50%) was determined by monitoring the effect of various concentrations (ranges from 1000-50 μM) of test compounds. The IC50 values were calculated by using EZ-FIT Enzyme Kinetics Program (Perrella Scientific Inc., Amherst, USA). The antiglycation potential of test compounds was compared with rutin, which was used as standard inhibitor.
# [1] = Antiglycation Studies IC50 ± SEM, BSA-MG model, 10 mg/mL BSA, 14 mM methylglyoxal, 37° C., 9 days, fluorescence ex 330/em 420 nm
smiles,measurement,setting,value
"O=C(NN=Cc1ccco1)c1cccs1 [Compound 3, 2-Thiophenecarboxylic acid, (2-furanylmethylene)hydrazide (9CI)]",IC50,[1],520.8 ± 1.8 µM
same,antiglycation activity (in words),BSA-MG model,moderate inhibition
"O=C(NN=Cc1ccccc1[N+](=O)[O-])c1ccccc1 [Compound 2, N′-(2-Nitrobenzylidene)benzohydrazide]",Antiglycation Studies IC50 ± SEM,,Inactive
same,antiglycation activity (in words),,inactive
same,inhibition at 1000 µM,,< 50%
"C(=NNc1ccccn1)c1ccccn1 [Compound 5, 1,3-Bis(2′-pyridyl)-1,2-diazapropen-2-ene]",IC50,[1],397.2 ± 2.2 µM
"C[C@@H]1O[C@@H](OC[C@H]2O[C@@H](Oc3c(-c4ccc(O)c(O)c4)oc4cc(O)cc(O)c4c3=O)[C@H](O)[C@@H](O)[C@@H]2O)[C@H](O)[C@H](O)[C@H]1O [Rutin, reference compound]",IC50,"BSA-MG model, 10 mg/mL BSA, 14 mM methylglyoxal, 37° C., 9 days, fluorescence ex 330/em 420 nm, read-out: Antiglycation Studies IC50 ± SEM",294 µM and 295 µM
"Cc1ccc(C=NNC(=O)c2cccs2)o1 [Compound 4, 2-Thiophencarboxylic acid, [(5-methyl-2-furanyl)methylene] hydrazide (9CI)]",IC50,"Antiglycation IC50 (unit printed as μ), BSA-MG model assay",442.8 ± 0.68 µM
same,IC50,[1],442.8 ± 0.68 µM
same,antiglycation activity (in words),BSA-MG model,moderate inhibition
"O=C(NN=Cc1cccc([N+](=O)[O-])c1)c1ccccc1 [Compound 1, N′-(3-Nitrobenzylidene)benzohydrazide]",Antiglycation Studies IC50 ± SEM,,Inactive
same,antiglycation activity (in words),,inactive
same,inhibition at 1000 µM,,< 50%
"C(=Nc1ccc(Cc2ccc(N=Cc3ccccn3)cc2)cc1)c1ccccn1 [Compound 6, Bis[4-(2-pyridylmethyleneamino)phenyl]methane]",IC50,[1],862.8 ± 3.3 µM
